Legend:
Pyk2 = Pyk2 (Homo sapiens, UniProt Q14289); test: in vitro kinase assay; format: biochemical; conditions: read-out: Pyk2 inhibition 1 μM ^a
[1] = target: FAK (focal adhesion kinase) (Homo sapiens, UniProt Q05397); test: in vitro kinase assay, Kinase-Glo luminescence; format: biochemical; conditions: read-out: FAK inhibition 1 μM ^a
FAK (focal adhesion kinase), sequence (Q05397 2-1052): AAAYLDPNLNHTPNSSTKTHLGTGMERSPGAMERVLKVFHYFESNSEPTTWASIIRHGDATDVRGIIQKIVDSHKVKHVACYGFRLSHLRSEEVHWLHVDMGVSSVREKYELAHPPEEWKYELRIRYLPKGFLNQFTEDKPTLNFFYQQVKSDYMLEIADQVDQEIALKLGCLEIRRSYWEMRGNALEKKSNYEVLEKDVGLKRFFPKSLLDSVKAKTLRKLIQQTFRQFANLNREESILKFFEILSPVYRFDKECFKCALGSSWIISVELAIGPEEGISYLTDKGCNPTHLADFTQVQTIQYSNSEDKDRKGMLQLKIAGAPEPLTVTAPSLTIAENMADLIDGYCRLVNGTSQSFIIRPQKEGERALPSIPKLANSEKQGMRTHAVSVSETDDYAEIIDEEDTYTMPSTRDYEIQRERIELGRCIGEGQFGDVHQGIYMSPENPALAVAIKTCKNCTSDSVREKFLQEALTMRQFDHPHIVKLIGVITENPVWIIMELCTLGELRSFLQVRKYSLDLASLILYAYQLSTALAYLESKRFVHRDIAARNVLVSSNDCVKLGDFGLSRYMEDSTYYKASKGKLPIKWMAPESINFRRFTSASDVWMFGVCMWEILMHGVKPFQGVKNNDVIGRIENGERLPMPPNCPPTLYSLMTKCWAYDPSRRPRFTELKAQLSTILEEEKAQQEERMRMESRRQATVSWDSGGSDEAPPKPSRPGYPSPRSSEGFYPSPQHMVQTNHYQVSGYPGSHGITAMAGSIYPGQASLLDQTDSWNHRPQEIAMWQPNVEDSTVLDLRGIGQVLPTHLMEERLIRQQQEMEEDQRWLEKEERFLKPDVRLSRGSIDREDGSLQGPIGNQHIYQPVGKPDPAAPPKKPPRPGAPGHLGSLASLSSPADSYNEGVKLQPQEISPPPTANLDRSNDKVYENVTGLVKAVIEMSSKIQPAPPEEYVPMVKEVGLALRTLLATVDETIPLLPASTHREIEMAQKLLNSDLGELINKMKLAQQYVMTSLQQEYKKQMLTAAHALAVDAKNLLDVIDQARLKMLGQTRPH

Pyk2, sequence (Q14289 whole entry): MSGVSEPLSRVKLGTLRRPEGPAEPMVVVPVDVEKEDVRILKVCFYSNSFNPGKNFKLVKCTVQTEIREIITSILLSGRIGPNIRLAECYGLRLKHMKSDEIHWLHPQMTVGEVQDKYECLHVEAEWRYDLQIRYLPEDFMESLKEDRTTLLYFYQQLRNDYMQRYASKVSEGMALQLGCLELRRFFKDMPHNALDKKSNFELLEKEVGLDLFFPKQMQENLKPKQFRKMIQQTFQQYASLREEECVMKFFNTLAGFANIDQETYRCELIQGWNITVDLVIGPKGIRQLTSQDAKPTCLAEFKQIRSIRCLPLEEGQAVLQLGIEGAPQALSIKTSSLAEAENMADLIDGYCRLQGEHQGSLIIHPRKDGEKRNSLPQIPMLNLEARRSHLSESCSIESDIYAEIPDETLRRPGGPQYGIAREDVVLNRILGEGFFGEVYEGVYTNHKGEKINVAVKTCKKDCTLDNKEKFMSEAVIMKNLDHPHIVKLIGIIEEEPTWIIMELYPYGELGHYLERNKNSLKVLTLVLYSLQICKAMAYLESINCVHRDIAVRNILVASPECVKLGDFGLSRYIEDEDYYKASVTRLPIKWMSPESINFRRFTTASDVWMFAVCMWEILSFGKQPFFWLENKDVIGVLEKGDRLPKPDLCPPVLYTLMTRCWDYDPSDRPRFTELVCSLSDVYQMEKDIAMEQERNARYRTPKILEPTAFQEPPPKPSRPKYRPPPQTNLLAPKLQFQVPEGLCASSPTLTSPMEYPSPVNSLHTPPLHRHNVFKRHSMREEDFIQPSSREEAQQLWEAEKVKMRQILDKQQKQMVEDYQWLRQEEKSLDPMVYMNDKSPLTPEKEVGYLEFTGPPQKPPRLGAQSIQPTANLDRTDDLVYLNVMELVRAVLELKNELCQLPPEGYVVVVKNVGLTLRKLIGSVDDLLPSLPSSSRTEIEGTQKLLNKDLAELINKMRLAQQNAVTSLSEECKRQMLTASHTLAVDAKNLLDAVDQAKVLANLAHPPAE

inhibition at 1 µM (Pyk2): 82% | inhibition at 1 µM [1]: 70%
SMILES: c1nc2nc(Nc3ccc(N4CCOCC4)cc3)nc(NC3CCCCC3)c2[nH]1 [reversine]
